Read-outs that look alike come from different tables or passages of the source.
How the values were obtained:
[1] = test system: HT-29 (human colorectal adenocarcinoma) cells; experiment: MTT reduction assay, antiproliferative effect, HT-29; type: cell-based; details: Homo sapiens, read-out: HT-29 IC50
From the text: (§1) Fetal bovine serum (FBS), phosphate-buffered saline (PBS), RPMI-1640, and trypsin were obtained from Biosera (Ringmer, UK). Penicillin/streptomycin and MTT (3-(4,5-dimethylthiazol-2-yl)-2,5-diphenyltetrazolium bromide) were from Sigma-Aldrich (Saint Louis, MO, USA) and Invitrogen (San Diego, CA, USA), respectively. Dimethyl sulfoxide and doxorubicin were purchased from Merck (Darmstadt, Germany) and EBEWE Pharma (Unterach, Austria), respectively. The cells were acquired from Iranian Biological Resource Center, Tehran, Iran (HT-29 (human colorectal adenocarcinoma), MCF-7 (human breast adenocarcinoma) and Vero (African green monkey kidney) cells) or National Cell Bank of Iran, Pasteur Institute, Tehran, Iran (MOLT-4 (lymphoblastic leukemia) cells).
(§2) MTT reduction assay was employed to assess the viability of cancer cells after being treated with synthesized derivatives as previously described ([34]). The cells were plated in flat-bottom 96-well microplates, at densities of 3 × 10^4 cells/mL (100 μL in each well) and then incubated overnight at 37 °C. Three to four different concentrations of synthesized derivatives (in the range of 1 to 100 μM) were placed in triplicate wells and the plates were incubated for 72 h at 37 °C. […] At the end of the incubation time, 80 μL of the media in each well was replaced with the same amount of growth medium without phenol red containing 0.5 mg/mL of MTT. Cells were further incubated at 37 °C for 4 h and then 80 μL of the solution of each well was removed. The addition of DMSO (200μL) to each well solubilized the formazan crystals formed inside the viable cells after 1-hour incubation followed by 30-minute shaking. The optical absorbance of the final solution was determined at 570 nm using a Bio-Tek multimode plate reader (Synergy HTX). The cell viability was calculated compared to untreated control cells by comparison of absorbance measurements. CurveExpert software (version 1.34 for Windows) was used to determine the IC50 value for each compound. To confirm the results, every experiment was repeated 3 to 5 times.

[2] = test system: MCF-7 (human breast adenocarcinoma) cells; experiment: MTT reduction assay, antiproliferative effect, MCF-7; type: cell-based
From the text: as §1, §2

[3] = test system: MOLT-4 (lymphoblastic leukemia) cells; experiment: MTT reduction assay, antiproliferative effect, MOLT-4; type: cell-based, human; details: Homo sapiens, read-out: MOLT-4 IC50
From the text: as §1, §2

[4] = test system: Vero (African green monkey kidney) cells; experiment: MTT reduction assay, Vero normal cells; type: cell-based; details: Chlorocebus sabaeus, Vero, read-out: Vero IC50
From the text: as §1, §2

[5] = test system: MCF-7 cells; experiment: Cell cycle analysis, propidium iodide/RNase flow cytometric assay; type: cell-based, human; details: 48 h; for Effect on number of cells in G0/G1: MCF-7, 10 and 25 µM
Description: Alterations of the cell cycle were determined by the propidium iodide (PI)-RNase flow cytometric method ([35]). MCF-7 cells were used to determine the percentage of cells in each phase of the cell cycle. In 6-well plates, 2 × 10^5 cells were seeded in each well and incubated at 37 °C for 48 h. Afterward, they were treated for 48 h with derivatives 9g, 9j, 9k and 9l at 10 and 25 μM. The cells were then collected after trypsinization, washed twice with PBS, and fixed by 5 mL ethanol 70% for at least 24 h at -20 °C. After fixation, MCF-7 cells were washed with PBS two times and stained with PI 20 µg/mL and RNase 200 µg/mL for 30 min in the dark at room temperature. A FACS Calibur ﬂow cytometer (BD Biosciences) was used for the assays and 20,000 events were analyzed. The number of cells distributed in sub-G1, G0/G1, S, and G2/M were determined by CellQuest software (BD, USA).
Figure 2 Representative cell cycle histograms of MCF-7 cells treated with synthesized derivatives. Analysis of the percentage of cells in different phases of cell cycle was performed using propidium iodide (PI)-RNase flow cytometric assay. MCF-7 cells were seeded in 6-well microplates and treated with synthesized derivatives for 48 h. The cells were then collected and fixed in 70% ethanol overnight at -20 °C. In the end, the cells were stained with DNA staining solution (PI 20 µg/mL and RNase 200 µg/mL) for 30 min and 20,000 events were analyzed by a FACS Calibur ﬂow cytometer (BD Biosciences). Representative histograms of cells treated with compounds 9g, 9j, 9k and 9l are shown

[6] = test system: MCF-7 cells; experiment: Hoechst 33258 staining, detection of apoptosis; type: cell-based, human; details: MCF-7, 72 h treatment, especially at 25 µM
Description: Hoechst 33258 was used as a DNA stain to detect apoptosis in cells. MCF-7 cells were seeded in a 6-well plate at a density of 5 × 10^4 cells/mL (2 mL per well) and incubated for 24 h. The whole medium was removed and different concentrations of test compounds 9g, 9j, 9k, and 9l diluted in 2 mL medium were placed in the different wells and incubated for 72 h. Afterward, the medium was removed again, 1 mL of 4% cold freshly prepared paraformaldehyde (PFA) was added, and cells were incubated for 20 min at room temperature. The cells were then washed 2 times with 1 ml PBS and incubated with 1 mL Hoechst 33258 2.5 µg/mL for 30 min in the dark at room temperature ([36], [37]). In the end, the cells were washed with 1 mL PBS and imaged with a fluorescence microscope.
Figure 3 Detection of apoptosis in MCF-7 cells by Hoechst staining. Hoechst 33258 was used as a DNA stain to detect apoptosis in MCF-7 cells treated with synthesized compounds. The cells were seeded in a 6-well plates and treated with different concentrations of test compounds 9g, 9j, 9k and 9l for 72 h. After removing the whole medium, 4% cold freshly prepared paraformaldehyde (PFA) was added for 20 min at room temperature, the cells were then washed twice with PBS, and incubated with Hoechst 33258 2.5 µg/mL for 30 min at room temperature in the dark. Finally, the cells were washed with PBS again and the plates were imaged with a fluorescence microscope

[7] = Homo sapiens, MCF7, 72 h, read-out: MCF-7 IC50, MTT, 72 h incubation

Row | Structure (SMILES) | IC50 ([1]; HT-29, 72 h) | IC50 [2, 7] | IC50 ([3]; MOLT-4, 72 h) | IC50 ([4]; 72 h) | Percentage of cells in G0/G1 ([5]; MCF-7, 10 µM) | Percentage of cells in G2/M ([5]; MCF-7, 10 µM) | Percentage of cells in S ([5]; MCF-7, 10 µM) | Percentage of cells in Sub G1 ([5]; MCF-7, 10 µM) | Effect on cells in sub-G1 phase ([5]; MCF-7, 25 µM) | Percentage of cells in G0/G1 ([5]; MCF-7, 25 µM) | Percentage of cells in G2/M ([5]; MCF-7, 25 µM) | Percentage of cells in S ([5]; MCF-7, 25 µM) | Percentage of cells in Sub G1 ([5]; MCF-7, 25 µM) | Effect on number of cells in G0/G1 [5] | Apoptosis induction by Hoechst 33258 staining [6] | melting point | also measured
1 | O=[N+]([O-])c1ccccc1C=NNc1nnc2c3ccccc3c3ccccc3c2n1 [Compound 9g, 3-(2-(2-nitrobenzylidene)hydrazinyl)phenanthro[9,10-e][1,2,4]triazine] | 16.7 ± 2.2 µM | 6.2 ± 1.3 µM | 5.4 ± 1 µM | 11.1 ± 1 µM | 69.25 ± 2.1 | 18.58 ± 2.2 | 8.79 ± 1.3 | 1.35 ± 0.3 | increased the cells in the sub-G1 phase | 74.76 ± 4.9 | 13.97 ± 3.3 | 7.58 ± 1.9 | 1.82 ± 0.3 | significantly enhanced the number of cells in the G0/G1 | showed signs of apoptosis | 225 to 229 °C | 
2 | O=[N+]([O-])c1cccc(C=NNc2nnc3c4ccccc4c4ccccc4c3n2)c1 [Compound 9h, 3-(2-(3-nitrobenzylidene)hydrazinyl)phenanthro[9,10-e][1,2,4]triazine] | 12.2 ± 4.1 µM | 10.4 ± 2.9 µM | 3.9 ± 0.6 µM | 19.4 ± 6.8 µM |  |  |  |  |  |  |  |  |  |  |  | 216 to 219 °C | 
3 | O=[N+]([O-])c1ccc(C=NNc2nnc3c4ccccc4c4ccccc4c3n2)cc1 [Compound 9i, 3-(2-(4-nitrobenzylidene)hydrazinyl)phenanthro[9,10-e][1,2,4]triazine] | 7.6 ± 0.8 µM | 17.7 ± 1.7 µM | 7.5 ± 0.1 µM | 7.4 ± 1.4 µM |  |  |  |  |  |  |  |  |  |  |  | 240 to 244 °C | 
4 | N#Cc1ccc(C=NNc2nnc3c4ccccc4c4ccccc4c3n2)cc1 [Compound 9j, 4-((2-(phenanthro[9,10-e][1,2,4]triazin-3-yl)hydrazono)methyl)benzonitrile] | 15.3 ± 1.5 µM | 5.8 ± 0.7 µM | 5.5 ± 0.1 µM | 11.3 ± 2.1 µM | 71.40 ± 2.2 | 17.95 ± 3.0 | 9.59 ± 2.0 | 1.08 ± 0.2 |  | 73.10 ± 3.0 | 17.51 ± 2.6 | 8.09 ± 2.0 | 1.30 ± 0.4 | significantly enhanced the number of cells in the G0/G1 | showed signs of apoptosis | 231 to 234 °C | 
5 | C(=NNc1nnc2c3ccccc3c3ccccc3c2n1)c1ccc[nH]1 [Compound 9k, 3-(2-((1H-pyrrol-2-yl)methylene)hydr-zinyl)phenanthro[9,10-e][1,2,4]triazine] | 14.3 ± 2.8 µM | 4.5 ± 0.16 µM | 1.7 ± 0.2 µM | 95.4 ± 12.4 µM | 77.30 ± 2.8 | 16.63 ± 2.5 | 4.63 ± 0.7 | 1.31 ± 0.1 | increased the cells in the sub-G1 phase | 77.42 ± 3.7 | 16.13 ± 2.9 | 4.68 ± 1.2 | 1.69 ± 0.4 | significantly enhanced the number of cells in the G0/G1 | showed signs of apoptosis | 210 to 214 °C | IC50 ([2]; read-out: MCF-7 IC50, MTT, 72 h incubation): 4.7 ± 0.3 µM
6 | COc1cccc2c1C(=O)c1c(O)c3c(c(O)c1C2=O)C[C@@](O)(C(=O)CO)C[C@@H]3O[C@H]1C[C@H](N)[C@H](O)[C@H](C)O1 [Doxorubicin, reference compound] |  |  |  |  |  |  |  |  |  |  |  |  |  |  |  |  | IC50 ([1]; HT-29, MTT, 72 h incubation): 0.409 ± 0.038 µM; IC50 ([2]; Homo sapiens, MCF7, MTT, 72 h incubation, read-out: MCF-7 IC50): 0.066 ± 0.007 µM; IC50 ([3]; MOLT-4, MTT, 72 h incubation): 0.017 ± 0.001 µM; IC50 ([4]; MTT, 72 h incubation, normal cells): 0.926 ± 0.031 µM
